Test results taken from ChEMBL document CHEMBL1795233, “The geranyl-modified tryptophan residue is crucial for ComXRO-E-2 pheromone biological activity” (Bioorg Med Chem Lett, 2011).
*1 amine or outer side, *2 acyl side, *3 side chain or, on linkers, in order; H or OH if unused. Where a SMILES comes first, the peptide text is derived from it. [ ]: non-standard residue; d: D form. X2 = CC(C)=CCC/C(C)=C/CC/C(C)=C/C[C@]12C[C@@H](C(=O)[*:2])N([*:1])[C@H]1Nc1ccccc12; X4 = CC(C)=CCC/C(C)=C/C[C@]12C[C@@H](C(=O)[*:2])N([*:1])[C@H]1Nc1ccccc12; X1 = C/C(=C\C[C@]12C[C@@H](C(=O)[*:2])N([*:1])[C@H]1Nc1ccccc12)CCCC(C)C; X3 = CC(C)=CC[C@]12C[C@@H](C(=O)[*:2])N([*:1])[C@H]1Nc1ccccc12

Experiments:
[1] = Effect on quorum sensing-mediated genetic competence in Bacillus subtilis expressing srfA-lacZ fusion assessed as concentration required to show same activity at EC50 of ComXRO-E-2 pheromone after 5 hrs by beta-galactosidase assay
[2] = system: Bacillus subtilis; test: Effect on quorum sensing-mediated genetic competence in Bacillus subtilis expressing srfA-lacZ fusion assessed as concentration required to show same activity at EC25 of ComXRO-E-2 pheromone after 5 hrs by beta-galactosidase assay
[3] = system: Bacillus subtilis; test: Effect on quorum sensing-mediated genetic competence in Bacillus subtilis expressing srfA-lacZ fusion assessed as maximum activity after 5 hrs by beta-galactosidase assay relative to ComXRO-E-2 pheromone

Row | SMILES | EC50 [1] | EC25 [2] | Emax [3]
1 | CC(C)=CCC/C(C)=C/C[C@]12C[C@@H](C(=O)N[C@@H](CCC(=O)O)C(=O)O)N(C(=O)[C@H](C)N)[C@H]1Nc1ccccc12 | > 300 nM | > 300 nM | 20%
2 | CC(C)=CCC/C(C)=C/C[C@]12C[C@@H](C(=O)N[C@@H](C)C(=O)O)N(C(=O)C(N)Cc3ccccc3)[C@H]1Nc1ccccc12 (single isomer, unassigned) | 60 nM | 3 nM | 70%
3 | CC(C)=CCC/C(C)=C/C[C@]12C[C@@H](C(=O)N[C@@H](C)C(=O)O)N(C(=O)[C@H](C)N)[C@H]1Nc1ccccc12 | > 300 nM | > 300 nM | 15%
4 | CC[C@H](C)[C@H](NC(=O)CN)C(=O)N[C@@H](Cc1ccccc1)C(=O)N1[C@H]2Nc3ccccc3[C@@]2(CC=C(C)C)C[C@H]1C(=O)N[C@@H](CCC(=O)O)C(=O)N[C@@H](CCC(N)=O)C(=O)O (H-GIF[X3]EQ-OH) | > 300 nM | > 300 nM | 0%
5 | CC(C)=CCC/C(C)=C/C[C@]12C[C@@H](C(=O)N[C@@H](C)C(=O)O)N(C(=O)[C@@H]3CCCN3)[C@H]1Nc1ccccc12 | > 300 nM | > 300 nM | 5%
6 | CC(C)=CCC/C(C)=C/C[C@]12C[C@H]3C(=O)N[C@@H](Cc4ccccc4)C(=O)N3[C@H]1Nc1ccccc12 | > 300 nM | > 300 nM | 5%
7 | CC(C)=CCC/C(C)=C/C[C@]12C[C@@H](C(=O)N[C@@H](C)C(=O)O)N(C(=O)[C@@H](N)CC(N)=O)[C@H]1Nc1ccccc12 | > 300 nM | > 300 nM | 5%
8 | CC(C)=CCC/C(C)=C/C[C@]12C[C@@H](C(=O)NCC(=O)O)N(C(=O)C(N)Cc3ccccc3)[C@H]1Nc1ccccc12 (single isomer, unassigned) | > 300 nM | 200 nM | 40%
9 | CC(C)=CCC/C(C)=C/C[C@]12C[C@@H](C(=O)N[C@@H](C)C(=O)O)N(C(=O)[C@@H](N)CC(C)C)[C@H]1Nc1ccccc12 | > 300 nM | > 300 nM | 20%
10 | CC(C)=CCC/C(C)=C/C[C@]12C[C@@H](C(=O)N[C@@H](C)C(=O)O)N(C(=O)[C@@H](N)Cc3ccc(O)cc3)[C@H]1Nc1ccccc12 | > 300 nM | 100 nM | 25%
11 | CC[C@H](C)[C@H](N)C(=O)N1[C@H]2Nc3ccccc3[C@@]2(C/C=C(\C)CCC=C(C)C)C[C@H]1C(=O)N[C@@H](C)C(=O)O | > 300 nM | 20 nM | 35%
12 | COC(=O)[C@@H]1C[C@]2(C/C=C(\C)CCC=C(C)C)c3ccccc3N[C@@H]2N1C(=O)[C@H](Cc1ccccc1)NC(C)=O | > 300 nM | > 300 nM | 10%
13 | CC[C@H](C)[C@H](NC(=O)CN)C(=O)N[C@@H](Cc1ccccc1)C(=O)N1[C@H]2Nc3ccccc3[C@@]2(C/C=C(\C)CC/C=C(\C)CCC=C(C)C)C[C@H]1C(=O)N[C@@H](CCC(=O)O)C(=O)N[C@@H](CCC(N)=O)C(=O)O (H-GIF[X2]EQ-OH) | > 300 nM | 20 nM | 35%
14 | CC[C@H](C)[C@H](NC(=O)CN)C(=O)N[C@@H](Cc1ccccc1)C(=O)N1[C@H]2Nc3ccccc3[C@@]2(C/C=C(\C)CCCC(C)C)C[C@H]1C(=O)N[C@@H](CCC(=O)O)C(=O)N[C@@H](CCC(N)=O)C(=O)O (H-GIF[X1]EQ-OH) | 20 nM | 2 nM | 75%
15 | CC(C)=CCC/C(C)=C/C[C@]12C[C@@H](C(=O)N[C@@H](CCC(=O)O)C(=O)O)N(C(=O)C(N)Cc3ccccc3)[C@H]1Nc1ccccc12 (single isomer, unassigned) | 20 nM | 8 nM | 60%
16 | CC(C)=CCC/C(C)=C/C[C@]12C[C@@H](C(N)=O)N(C(=O)c3ccccc3)[C@H]1Nc1ccccc12 | > 300 nM | > 300 nM | 0%
17 | CC(C)=CCC/C(C)=C/C[C@]12C[C@@H](C(=O)N[C@@H](C)C(=O)O)N(C(=O)[C@@H](N)Cc3cc4ccccc4[nH]3)[C@H]1Nc1ccccc12 | > 300 nM | > 300 nM | 15%
18 | CC[C@H](C)[C@H](NC(=O)CN)C(=O)N[C@@H](Cc1ccccc1)C(=O)N1[C@H]2Nc3ccccc3[C@@]2(C/C=C(\C)CCC=C(C)C)C[C@H]1C(=O)N[C@@H](CCC(=O)O)C(=O)N[C@@H](CCC(N)=O)C(=O)O (H-GIF[X4]EQ-OH) | 1 nM | 0.3 nM | –
19 | CC[C@H](C)[C@H](NC(=O)CN)C(=O)N[C@@H](Cc1ccccc1)C(=O)N1[C@H]2Nc3ccccc3[C@@]2(CCC(C)CCCC(C)C)C[C@H]1C(=O)N[C@@H](CCC(=O)O)C(=O)N[C@@H](CCC(N)=O)C(=O)O (mixture of isomers) | > 300 nM | 200 nM | 40%
20 | CC(C)=CCC/C(C)=C/C[C@]12C[C@@H](C(N)=O)N(C(=O)[C@@H](N)Cc3ccccc3)[C@H]1Nc1ccccc12 | > 300 nM | 50 nM | 35%
